In PubChem BioAssay AID212 (DTP/NCI, 2004):
Values joined by “and” are separate entries in the source; they are usually repeats but may differ in a detail not shown here. Identical values can stand only once. Inconclusive results are not listed.

System: BDF1 mice, colon carcinoma 38 sc, T/C %
Test: NCI In Vivo Anticancer Drug Screen. Data for tumor model Colon Carcinoma 38 (subcutaneous) in B6D2F1 (BDF1) mice
Conditions: endpoint: median tumor weight (est.), higher = larger tumour
How it was run: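 Ratio of survival or tumor size, compound-treated animals relative to vehicle controls, in tumor-bearing mice.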

[1] = dose: 12.5 mg/kg/injection, schedule: Q07DX002 (ip), vehicle: saline with Tween-80
[2] = dose: 25.0 mg/kg/injection, schedule: Q07DX002 (ip), vehicle: saline with Tween-80
[3] = dose: 50.0 mg/kg/injection, schedule: Q07DX002 (ip), vehicle: saline with Tween-80
[4] = dose: 12.5 mg/kg/injection, schedule: Q07DX002 (ip), vehicle: Klucel (hydroxypropylcellulose) (HPC)
[5] = dose: 25.0 mg/kg/injection, schedule: Q07DX002 (ip), vehicle: Klucel (hydroxypropylcellulose) (HPC)
[6] = dose: 25.0 mg/kg/injection, schedule: Q07DX002 (ip), vehicle: saline
[7] = dose: 200.0 mg/kg/injection, schedule: Q07DX002 (ip), vehicle: saline
[8] = dose: 400.0 mg/kg/injection, schedule: Q07DX002 (ip), vehicle: saline
[9] = dose: 100.0 mg/kg/injection, schedule: Q07DX002 (ip), vehicle: saline

OCC1OC(n2cnc3cc(Cl)c(Cl)cc32)C(O)C1O (centres undefined)
T/C [1]: 101 % of control | T/C [2]: 98 % of control | T/C [3]: 105 % of control | T/C (dose: 100.0 mg/kg/injection, schedule: Q07DX002 (ip), vehicle: saline with Tween-80): 98 % of control

CCC1OCC(C(Cl)CCl)O1 (centres undefined)
T/C [4]: 101 % of control | T/C (dose: 12.5 mg/kg/injection, schedule: Q07DX003 (ip), vehicle: Klucel (hydroxypropylcellulose) (HPC)): 82 % of control | T/C [5]: 95 % of control and 96 % of control | T/C (dose: 25.0 mg/kg/injection, schedule: Q07DX003 (ip), vehicle: Klucel (hydroxypropylcellulose) (HPC)): 96 % of control | T/C (dose: 50.0 mg/kg/injection, schedule: Q07DX003 (ip), vehicle: Klucel (hydroxypropylcellulose) (HPC)): 92 % of control | T/C (dose: 100.0 mg/kg/injection, schedule: Q07DX003 (ip), vehicle: Klucel (hydroxypropylcellulose) (HPC)): 69 % of control | T/C (dose: 200.0 mg/kg/injection, schedule: Q07DX002 (ip), vehicle: Klucel (hydroxypropylcellulose) (HPC)): 203 % of control | T/C (dose: 200.0 mg/kg/injection, schedule: Q07DX003 (ip), vehicle: Klucel (hydroxypropylcellulose) (HPC)): 67 % of control | T/C (dose: 400.0 mg/kg/injection, schedule: Q07DX003 (ip), vehicle: Klucel (hydroxypropylcellulose) (HPC)): 39 % of control

N=C(N)Sc1ccccn1
T/C (dose: 100.0 mg/kg/injection, schedule: Q07DX003 (ip), vehicle: saline): 94 % of control | T/C (dose: 200.0 mg/kg/injection, schedule: Q07DX003 (ip), vehicle: saline): 81 % of control | T/C (dose: 400.0 mg/kg/injection, schedule: Q07DX003 (ip), vehicle: saline): 88 % of control and 108 % of control

O=c1[nH]c(=O)c2nc(-c3cccnc3)cnc2[nH]1
T/C (dose: 12.5 mg/kg/injection, schedule: Q07DX002 (ip), vehicle: saline): 116 % of control | T/C [6]: 78 % of control and 81 % of control | T/C [7]: 80 % of control and 103 % of control | T/C [8]: 95 % of control and 97 % of control

CN1C(=O)C(=Cc2ccc(O)cc2)C(=O)N(C)C1=O
T/C [1]: 105 % of control | T/C [2]: 53 % of control

NC(=O)c1ncn2c(=O)n(CCCl)nnc12
T/C (dose: 6.0 mg/kg/injection, schedule: Q07DX002 (ip), vehicle: saline): 110 % of control | T/C (dose: 6.25 mg/kg/injection, schedule: Q07DX002 (ip), vehicle: Klucel (hydroxypropylcellulose) (HPC)): 43 % of control and 65 % of control | T/C (dose: 6.25 mg/kg/injection, schedule: Q07DX002 (ip), vehicle: saline): 47 % of control | T/C (dose: 12.0 mg/kg/injection, schedule: Q07DX002 (ip), vehicle: saline): 51 % of control | T/C [4]: 22 % of control and 45 % of control | T/C [5]: 21 % of control and 36 % of control | T/C [6]: 55 % of control and 59 % of control | T/C (dose: 50.0 mg/kg/injection, schedule: Q07DX002 (ip), vehicle: Klucel (hydroxypropylcellulose) (HPC)): 2 % of control | T/C [9]: 2 % of control

O=CN(SSN(C=O)C1CCCCC1)C1CCCCC1
T/C [2]: 98 % of control and 99 % of control | T/C [3]: 77 % of control and 78 % of control | T/C (dose: 200.0 mg/kg/injection, schedule: Q07DX002 (ip), vehicle: saline with Tween-80): 113 % of control and 98 % of control

NC(=S)c1ncn(C2OC(CO)C(O)C2O)c1N (centres undefined)
T/C (dose: 12.5 mg/kg/injection, schedule: Q07DX002 (ip), vehicle: suspension in saline): 114 % of control | T/C (dose: 25.0 mg/kg/injection, schedule: Q07DX002 (ip), vehicle: suspension in saline): 80 % of control | T/C (dose: 50.0 mg/kg/injection, schedule: Q07DX002 (ip), vehicle: saline): 106 % of control | T/C (dose: 50.0 mg/kg/injection, schedule: Q07DX002 (ip), vehicle: suspension in saline): 87 % of control | T/C [9]: 118 % of control | T/C (dose: 100.0 mg/kg/injection, schedule: Q07DX002 (ip), vehicle: suspension in saline): 67 % of control | T/C [7]: 259 % of control | T/C (dose: 200.0 mg/kg/injection, schedule: Q07DX002 (ip), vehicle: suspension in saline): 56 % of control | T/C [8]: 226 % of control | T/C (dose: 400.0 mg/kg/injection, schedule: Q07DX002 (ip), vehicle: suspension in saline): 67 % of control

CN(C)CCN1C(=O)c2cccc3cc(N)cc(c23)C1=O
T/C (dose: 2.0 mg/kg/injection, schedule: Q07DX002 (ip), vehicle: saline with Tween-80): 111 % of control | T/C (dose: 4.0 mg/kg/injection, schedule: Q07DX002 (ip), vehicle: saline with Tween-80): 97 % of control | T/C (dose: 8.0 mg/kg/injection, schedule: Q07DX002 (ip), vehicle: saline with Tween-80): 87 % of control and 88 % of control | T/C (dose: 16.0 mg/kg/injection, schedule: Q07DX002 (ip), vehicle: saline with Tween-80): 100 % of control | T/C (dose: 64.0 mg/kg/injection, schedule: Q07DX002 (ip), vehicle: saline with Tween-80): 55 % of control and 58 % of control
